Source: US20100304426A1, “Analytical Methods for Measuring Synthetic Progesterone” (priority 2009, published 2010)
Where two headings read alike, the source gives them in different places. Marks after values point to notes of the source that are not given here. Each block holds one compound with its values, some of them ahead of it.

Legend:
clinical = conditions: human, in vivo, 200 mg
Text: A definitive low-level LC/MS/MS analytical method to determine the concentrations of synthetic progesterone in human plasma is described. Instrumentation used in this example includes an Applied Biosystems Q-Trap 4000 system using Analyst® 1.4.2 software, Shimadzu LC-20AD HPLC pumps and a LEAP HTC PAL Autosampler. As understood by a person skilled in the art, various similar or equivalent pieces of instrumentation can be used to perform this method. It is also recognized that improved instrumentation can be introduced utilizing equivalent or similar principles of analysis to perform this method similarly or better by being faster, more sensitive, more accurate or more robust relative to the instrumentation used herein. Analyze the pregnant female plasma isotopic ratio standard seven consecutive times. Analyze the synthetic isotopic ratio standard at least seven consecutive times. Analyze the plate beginning with the first calibration sample. Using the data from the seven injections of pregnant female plasma calculate the average area for the progesterone transition and for the progesterone isotope transition. Calculate the ratio by dividing the average area of the progesterone peak by the average area of the isotope peak. This is the natural progesterone ratio. Using the data from the seven injections of the Synthetic Standard calculate the average area for the progesterone transition and for the progesterone isotope transition. Calculate the ratio by dividing the average area of the progesterone peak by the average area of the isotope peak. This is the synthetic progesterone ratio. […] In addition, data presented herein are for fasted post-menopausal women. Fasting can affect progesterone uptake. In this example, healthy, fasted, post-menopausal women orally ingest 1×200 mg progesterone. Plasma samples are obtained from 2 h pre-dose to 24 h post-dose. […] Cmax is the maximum observed concentration and Tmax the time at which Cmax took place. Clast is the value of the last measurable concentration, and […].

[1] = design: AUC / Cmax: unit not given beside the values; conditions: from package insert, total progesterone, cited from earlier work
[2] = reported; cited from earlier work

AUClast (clinical; po): 3.84 ng·h/mL
Tmax (clinical; po): 2.33^a h
Compound: CC(=O)[C@H]1CC[C@H]2[C@@H]3CCC4=CC(=O)CC[C@]4(C)[C@H]3CC[C@]12C [Endogenous Progesterone]

AUC (clinical; female): 1.6 ng·h/mL
Cmax (clinical; female): 3.1 ± 2.3
Cmax (clinical; female, Cmax): 1.05 ng/mL
Tmax (clinical; female, po): 2.63 h
AUC(0-t) (clinical; female, po, AUC0-4 h): 1.01 to 2.37 ng·h/mL
AUC(0-t) (clinical; female, po, AUClast): 2.11 ng·h/mL
Cmax (clinical; female, po, Cmax): 0.62 to 1.6 ng/mL
Compound: CC(=O)[C@H]1CC[C@H]2[C@@H]3CCC4=CC(=O)CC[C@]4(C)[C@H]3CC[C@]12C [PROMETRIUM, pregn-4-ene-3,20-dione]
AUC ([1]; 100 mg after 5 daily doses): 43.3 + 30.8
Cmax ([1]; 100 mg after 5 daily doses): 17.3 + 21.9
Cmax ([1]; 200 mg after 5 daily doses): 38.1 + 37.8
Tmax ([1]; 200 mg after 5 daily doses): 2.3 + 1.4
AUC ([1]; 300 mg after 5 daily doses): 175.7 + 170.3
Cmax ([1]; 300 mg after 5 daily doses): 60.6 + 72.5
Tmax ([1]; 300 mg after 5 daily doses): 1.7 + 0.6

AUClast (clinical; po): 6.47 ng·h/mL
Tmax (clinical; po): 2.00 h
Compound: CC(=O)[C@H]1CC[C@H]2[C@@H]3CCC4=CC(=O)CC[C@]4(C)[C@H]3CC[C@]12C [Total Progesterone]

Compound: CC(=O)[C@H]1CC[C@H]2[C@@H]3CCC4=CC(=O)CC[C@]4(C)[C@H]3CC[C@]12C [progesterone]
half life in the circulation [2]: only a few minutes
